Reference: ChEMBL document CHEMBL3526091, “Pharmacokinetics, metabolism, and excretion of the glycogen synthase kinase-3 inhibitor LY2090314 in rats, dogs, and humans: a case study in rapid clearance by extensive metabolism with low circulating metabolite exposure” (Drug Metab Dispos, 2013)

Experiments:
[1] = Tmax in cancer patient at 10 mg for 60 mins treated 2/1 cycle/day; assay type: ADME, organism-based; set-up: dosed compound name LY2090314; conditions: human, in vivo
[2] = Half life in cancer patient at 120 mg for 60 mins treated 1/8 cycle/day; assay type: ADME, organism-based; set-up: dosed compound name LY2090314; conditions: human, in vivo
[3] = Volume of distribution at steady state in cancer patient at 120 mg for 60 mins treated 1/8 cycle/day; assay type: ADME, organism-based; set-up: dosed compound name LY2090314; conditions: human, in vivo, read-out: Vdss
[4] = Half life in cancer patient at 40 mg for 60 mins treated 1/1 cycle/day; assay type: ADME, organism-based; set-up: dosed compound name LY2090314; conditions: human, in vivo
Plasma [5] = assay: Plasma concentration in beagle dog at 5 mg/kg, iv administered for 30 mins; assay type: ADME, organism-based, Canis lupus familiaris; set-up: dose 5 mg/kg, dosed compound name [14C]LY2090314, route intravenous; conditions: in vivo, 0.5 h
Canis familiaris [6] = assay: Drug recovery in beagle dog cage at 5 mg/kg, iv administered for 30 mins during 0 to 24 hrs time interval by radio analysis; assay type: ADME, organism-based, Canis lupus familiaris; set-up: dose 5 mg/kg, dosed compound name [14C]LY2090314, route intravenous; conditions: in vivo
Canis familiaris [7] = assay: Total drug recovery in beagle dog at 5 mg/kg, iv administered for 30 mins during 0 to 24 hrs time interval by radio analysis; assay type: ADME, organism-based, Canis lupus familiaris; set-up: dose 5 mg/kg, dosed compound name [14C]LY2090314, route intravenous; conditions: in vivo
Canis familiaris [8] = assay: Cmax in beagle dog assessed as total radioactivity at 5 mg/kg, iv administered for 30 mins; assay type: ADME, organism-based, Canis lupus familiaris; set-up: dose 5 mg/kg, dosed compound name [14C]LY2090314, route intravenous; conditions: in vivo, 0.5 h
[9] = Tmax in cancer patient at 80 mg for 60 mins treated 1/1 cycle/day; assay type: ADME, organism-based; set-up: dosed compound name LY2090314; conditions: human, in vivo
[10] = Half life in cancer patient at 40 mg for 60 mins treated 1/8 cycle/day; assay type: ADME, organism-based; set-up: dosed compound name LY2090314; conditions: human, in vivo
[11] = Half life in cancer patient at 60 mg for 60 mins treated 1/8 cycle/day; assay type: ADME, organism-based; set-up: dosed compound name LY2090314; conditions: human, in vivo
[12] = Volume of distribution at steady state in cancer patient at 10 mg for 60 mins treated 2/1 cycle/day; assay type: ADME, organism-based; set-up: dosed compound name LY2090314; conditions: human, in vivo, read-out: Vdss
[13] = Clearance in cancer patient kidney at 80 to 120 mg for 60 mins; assay type: ADME, organism-based; set-up: dosed compound name LY2090314; conditions: human, in vivo
[14] = Half life in cancer patient at 10 mg for 60 mins treated 2/1 cycle/day; assay type: ADME, organism-based; set-up: dosed compound name LY2090314; conditions: human, in vivo
[15] = Clearance in cancer patient at 20 mg for 60 mins treated 1/1 cycle/day; assay type: ADME, organism-based; set-up: dosed compound name LY2090314; conditions: human, in vivo
[16] = Cmax in cancer patient at 60 mg for 60 mins treated 1/8 cycle/day; assay type: ADME, organism-based; set-up: dose 60 mg, dosed compound name LY2090314; conditions: human, in vivo
[17] = Clearance in cancer patient at 120 mg for 60 mins treated 1/1 cycle/day; assay type: ADME, organism-based; set-up: dosed compound name LY2090314; conditions: human, in vivo
[18] = Half life in cancer patient at 10 mg for 60 mins treated 1/1 cycle/day; assay type: ADME, organism-based; set-up: dosed compound name LY2090314; conditions: human, in vivo
[19] = Cmax in cancer patient at 20 mg for 60 mins treated 2/1 cycle/day; assay type: ADME, organism-based; set-up: dose 20 mg, dosed compound name LY2090314; conditions: human, in vivo
[20] = Drug recovery in Sprague-Dawley rat feces at 5 mg/kg, iv administered for 30 mins during 48 hrs time interval by radio analysis; assay type: ADME, organism-based; set-up: dose 5 mg/kg, dosed compound name [14C]LY2090314, route intravenous; conditions: in vivo
[21] = Cmax in Sprague-Dawley rat at 5 mg/kg, iv administered for 30 mins; assay type: ADME, organism-based; set-up: dose 5 mg/kg, dosed compound name [14C]LY2090314, route intravenous; conditions: in vivo
[22] = Half life in cancer patient at 80 mg for 60 mins treated 1/8 cycle/day; assay type: ADME, organism-based; set-up: dosed compound name LY2090314; conditions: human, in vivo
[23] = Drug recovery in beagle dog feces at 5 mg/kg, iv administered for 30 mins during 0 to 168 hrs time interval by radio analysis; assay type: ADME, organism-based, Canis lupus familiaris; set-up: dose 5 mg/kg, dosed compound name [14C]LY2090314, route intravenous; conditions: in vivo
[24] = Drug recovery in Sprague-Dawley rat carcass at 5 mg/kg, iv administered for 30 mins during 0 to 168 hrs time interval by radio analysis; assay type: ADME, organism-based; set-up: dose 5 mg/kg, dosed compound name [14C]LY2090314, route intravenous; conditions: in vivo
[25] = Cmax in cancer patient at 40 mg for 60 mins treated 1/1 cycle/day; assay type: ADME, organism-based; set-up: dose 40 mg, dosed compound name LY2090314; conditions: human, in vivo
[26] = Drug metabolism in Mdr1a knockout Sprague-Dawley rat bile at 5 mg/kg, iv administered for 30 mins; assay type: ADME, organism-based; set-up: dose 5 mg/kg, dosed compound name LY2090314, route intravenous; conditions: in vivo, 0.5 h
Canis familiaris [27] = assay: Total drug recovery in beagle dog at 5 mg/kg, iv administered for 30 mins during 0 to 168 hrs time interval by radio analysis; assay type: ADME, organism-based, Canis lupus familiaris; set-up: dose 5 mg/kg, dosed compound name [14C]LY2090314, route intravenous; conditions: in vivo
Plasma [28] = assay: Plasma concentration in beagle dog at Tmax; assay type: ADME, cell-free, Canis lupus familiaris; set-up: dosed compound name [14C]LY2090314

Structure (SMILES): O=C1NC(=O)C(c2cnc3ccccn23)=C1c1cn2c3c(cc(F)cc13)CN(C(=O)N1CCCCC1)CC2 [LY-2090314]
- Tmax [1]: 0.92 h
- half-life [2]: 3.05 h
- Vd [3]: 143 L
- half-life [4]: 3.15 h
- Compound recovery (Plasma [5]): 21.4%
- Radiolabel recovery (Canis familiaris [6]): 2.03%
- Radiolabel recovery (Canis familiaris [7]): 61.5%
- Cmax (Canis familiaris [8]): 7.24 µg/mL
- Tmax [9]: 1 h
- half-life [10]: 2.68 h
- half-life [11]: 3.35 h
- Vd [12]: 101 L
- CL renal at 1 h [13]: 14.2 mL/min
- half-life [14]: 2.44 h
- clearance [15]: 782 mL/min
- Cmax [16]: 1.04 µg/mL
- clearance [17]: 605 mL/min
- half-life [18]: 2.24 h
- Cmax [19]: 0.271 µg/mL
- Radiolabel recovery [20]: 65.8%
- Cmax [21]: 1.68 µg/mL
- half-life [22]: 2.6 h
- Radiolabel recovery [23]: 69.2%
- Radiolabel recovery [24]: 0.07%
- Cmax [25]: 0.603 µg/mL
- Drug metabolism [26]: metabolite_detected
- Radiolabel recovery (Canis familiaris [27]): 93%
- Compound recovery (Plasma [28]): 82.8%
